Assay results published in ChEMBL document CHEMBL4616712, “Design and Synthesis of 1,2-Deoxy-pyranose Derivatives of Spliceostatin A toward Prostate Cancer Treatment” (ACS Med Chem Lett, 2020).

Assays:
CWR22R = assay: Suppression of AR-V7 expression in human CWR22Rv1 cells expressing GFP measured after 3 days by FACS assay; type: functional, cell-based; details: 22Rv1, 72 h
[1] = Toxicity in BALB/c mouse assessed as mouse death at 280 nM/body, iv measured after 24 hrs; type: organism-based; details: in vivo, 0.28 µM
LNCaP = assay: Suppression of AR-V7 expression in human LNCAP cells expressing GFP; type: functional, cell-based
[2] = Toxicity in BALB/c mouse assessed as effect on weight loss at 280 nM/body, iv administered on day 2 and day 4; type: organism-based; details: in vivo, 0.28 µM
[3] = Toxicity in BALB/c mouse assessed as mouse death at 280 nM/body, iv administered on day 2 and day 4; type: organism-based; details: in vivo, 0.28 µM

Compound	IC50 (CWR22R) [nM]	further results
CO[C@]1(C)C[C@@]2(CO2)[C@H](O)[C@@H](/C=C/C(C)=C/C[C@@H]2O[C@H](C)[C@H](NC(=O)/C=C\[C@H](C)OC(C)=O)C[C@@H]2C)O1	0.6	Activity [1]: Toxic
CC(=O)O[C@@H](C)/C=C\C(=O)N[C@@H]1C[C@H](C)[C@H](C/C=C(C)/C=C/[C@H]2OCC[C@]3(O[C@H]3C)[C@@H]2O)O[C@@H]1C	187	–
CC(=O)O[C@@H](C)/C=C\C(=O)N[C@@H]1C[C@H](C)[C@H](C/C=C(C)/C=C/[C@H]2O[C@H](c3ccccc3)C[C@@]3(CO3)[C@@H]2O)O[C@@H]1C	–	IC50 (LNCaP): 132 nM
CC(=O)O[C@@H](C)/C=C\C(=O)N[C@@H]1C[C@H](C)[C@H](C/C=C(C)/C=C/[C@H]2OCC[C@]3(O[C@@H]3C)[C@@H]2O)O[C@@H]1C	202	–
CC(=O)O[C@@H](C)/C=C\C(=O)N[C@@H]1C[C@H](C)[C@H](C/C=C(C)/C=C/[C@H]2OCC[C@@]3(CO3)[C@@H]2O)O[C@@H]1C	3.3	Activity [2]: Non-Toxic; Activity [3]: Non-Toxic
